The values below are quoted from earlier work in patent publication US5496703A, “Indirect immunoassay for dioxinlike compounds” (priority 1993, dated 1996).

The test system of one series is Ah receptor. The following applies: cited from earlier work.
The test system of series [1] is AHH. The following applies: responsive C57BL/6J inbred mouse strain; cited from earlier work.
Series [2] has as its system AHH. To be noted: nonresponsive DBA/2 inbred mouse strain; cited from earlier work.

Like-named read-outs stand apart in the source and are kept apart here.

In the case of `c1ccc2c(c1)cc1ccc3cccc4ccc2c1c34` [benzo[a]pyrene], the “binding affinity to Ah receptor” value in the series with Ah receptor is given as “high affinity”.
Take `Cc1ccc2cc3c(ccc4ccccc43)c3c2c1CC3` [3-methylcholanthrene]: the “binding affinity to Ah receptor” value with Ah receptor is recorded as “high affinity”. The AHH induction entry in the series on AHH [1] is recorded as “capable of inducing AHH activity”; with AHH [2], “not in the nonresponsive DBA/2 inbred mouse strain”.
